The text below walks through data of patent US10040803B2, “4-((2-acrylamidophenyl)amino)thieno[3,2-D]pyrimidine-7-carboxamide derivatives as protein kinase inhibitors” (KOREA INSTITUTE OF SCIENCE AND TECHNOLOGY, priority 2016, dated 2018).

The test system of assay [1] is HUH7 cells. The assay is described as follows: Inhibition of growth of liver cancer cell line HUH7 (CellTiter-Glo). The conditions noted are these: Homo sapiens, Huh-7, CellTiter-Glo luminescence. It is filed as cell-based. On the procedure: (§1) The inhibition activity for liver cancer cell lines was measured for 4-((2-acrylamido-6-methylphenyl)amino)-N-(3,5-dimethoxyphenyl)thieno[3,2-d]pyrimidine-7-carboxamide (Compound 1) and 4-((2-acrylamido-6-methylphenyl)amino)-N-(2-methyl-5-(3-(trifluoromethyl)benzamido)phenyl)thieno[3,2-d]pyrimidine-7-carboxamide (Compound 2) synthesized in the present invention.
(§2) Hep3B or HUH7 cells were seeded onto a 96-well plate with 5,000 cells per well and then cultured overnight in F-12K Nutrient Mixture (Life Technologies Corporation) containing 10% FBS at 37° C. in the presence of 5% CO2. The test compound dissolved in dimethyl sulfoxide was diluted to a final concentration of 1-50 μM and then added to the 96-well plate. After culturing at 37° C. in the presence of 5% CO2 and adding a cell count reagent (CellTiter-Glo® Luminescent Cell Viability Assay), luminescence intensity was measured using a luminescence measuring apparatus (Envision).

The test system of assay [2] is Hep3B cells. Briefly: Inhibition of growth of liver cancer cell line Hep3B (CellTiter-Glo). The class given is cell-based. The settings on record: Homo sapiens, CellTiter-Glo luminescence. How it is done:
as §1, §2

As for `C=CC(=O)Nc1cccc(C)c1Nc1ncnc2c(C(=O)Nc3cc(OC)cc(OC)c3)csc12` [Compound 1, 4-((2-acrylamido-6-methylphenyl)amino)-N-(3,5-dimethoxyphenyl)thieno[3,2-d]pyrimidine-7-carboxamide], the GI50 in assay [1] and in assay [2] was less than 10 µM in each case.

In the case of `C=CC(=O)Nc1cccc(C)c1Nc1ncnc2c(C(=O)Nc3cc(NC(=O)c4cccc(C(F)(F)F)c4)ccc3C)csc12` [Compound 2, 4-((2-acrylamido-6-methylphenyl)amino)-N-(2-methyl-5-(3-(trifluoromethyl)benzamido)phenyl)thieno[3,2-d]pyrimidine-7-carboxamide], the GI50 in assay [1] and in assay [2] was less than 1 µM in each case.
